Experiment [1] addresses Sphingosine 1-phosphate receptor 1 (Homo sapiens, UniProt P21453). The class given is functional.
Another experiment deals with T1, Coagulation factor XII (Homo sapiens, UniProt P00748).
T1 sequence (P00748 whole entry): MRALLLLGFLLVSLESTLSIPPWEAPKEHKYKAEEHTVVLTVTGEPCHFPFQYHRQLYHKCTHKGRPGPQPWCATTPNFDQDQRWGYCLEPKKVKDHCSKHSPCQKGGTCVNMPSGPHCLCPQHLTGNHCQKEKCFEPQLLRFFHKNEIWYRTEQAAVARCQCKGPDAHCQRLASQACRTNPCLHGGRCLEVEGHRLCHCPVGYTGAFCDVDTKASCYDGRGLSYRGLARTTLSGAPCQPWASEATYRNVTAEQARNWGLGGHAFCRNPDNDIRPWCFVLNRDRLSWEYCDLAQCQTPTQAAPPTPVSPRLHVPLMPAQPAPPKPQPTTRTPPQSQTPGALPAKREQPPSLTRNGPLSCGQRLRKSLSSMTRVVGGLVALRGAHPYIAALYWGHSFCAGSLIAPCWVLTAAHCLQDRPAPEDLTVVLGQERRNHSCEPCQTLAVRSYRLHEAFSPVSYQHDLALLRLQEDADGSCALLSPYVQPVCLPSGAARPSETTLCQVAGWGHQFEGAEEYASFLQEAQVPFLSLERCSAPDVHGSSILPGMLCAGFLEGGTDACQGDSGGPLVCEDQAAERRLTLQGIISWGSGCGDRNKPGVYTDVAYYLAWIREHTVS
The class given is functional.

The target in experiment [2] is T2, Zinc finger protein mex-5 (Caenorhabditis elegans, UniProt Q9XUB2).
T2 sequence (Q9XUB2 whole entry): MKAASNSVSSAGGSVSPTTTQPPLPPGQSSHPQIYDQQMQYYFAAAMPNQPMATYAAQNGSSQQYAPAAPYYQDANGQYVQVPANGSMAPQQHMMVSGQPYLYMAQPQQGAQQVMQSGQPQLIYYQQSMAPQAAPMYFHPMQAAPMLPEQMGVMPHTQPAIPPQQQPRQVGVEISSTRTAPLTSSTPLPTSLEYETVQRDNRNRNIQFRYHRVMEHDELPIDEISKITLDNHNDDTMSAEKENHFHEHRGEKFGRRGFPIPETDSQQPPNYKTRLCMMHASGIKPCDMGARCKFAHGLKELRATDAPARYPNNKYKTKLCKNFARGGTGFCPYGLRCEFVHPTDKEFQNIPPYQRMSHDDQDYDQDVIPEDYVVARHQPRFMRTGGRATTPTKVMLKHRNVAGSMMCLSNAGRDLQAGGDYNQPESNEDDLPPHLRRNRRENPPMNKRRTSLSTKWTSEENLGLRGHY
Briefly: potency of MEX-5 RNA-binding blockers – biochemical, C. elegans, fluorescence polarization, dose response (AID 1960). (In general: Fluorescence polarisation rises when a labelled molecule tumbles more slowly, as on binding a larger partner.)

Experiment [3] can be described thus: alpha-synuclein stem-loop luciferase translation blockers – H4 neuroglioma cells, luminescence, confirmation (AID 1988). Format: functional, cell-based.
In another experiment the target is T3, Streptokinase A (Streptococcus pyogenes serotype M1, UniProt P10520).
T3 sequence (P10520 whole entry): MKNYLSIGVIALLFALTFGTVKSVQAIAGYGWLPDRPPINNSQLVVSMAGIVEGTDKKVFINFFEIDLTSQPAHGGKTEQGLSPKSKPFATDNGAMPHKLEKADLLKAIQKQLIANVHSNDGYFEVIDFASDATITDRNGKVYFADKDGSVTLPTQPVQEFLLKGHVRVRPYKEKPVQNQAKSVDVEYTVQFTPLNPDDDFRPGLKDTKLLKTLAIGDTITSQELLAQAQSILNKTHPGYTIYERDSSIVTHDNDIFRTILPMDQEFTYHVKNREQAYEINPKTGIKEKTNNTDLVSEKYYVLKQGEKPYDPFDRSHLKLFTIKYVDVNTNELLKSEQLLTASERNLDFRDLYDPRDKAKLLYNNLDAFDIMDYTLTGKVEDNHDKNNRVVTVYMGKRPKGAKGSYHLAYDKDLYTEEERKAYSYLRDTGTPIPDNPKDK
Briefly: viability-normalized secreted streptokinase activity reduction – plasminogen activation absorbance, OD405, dose response (AID 1914).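 Further: secreted streptokinase activity via plasminogen activation per viability signal from cell pellet.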 The class given is functional, Streptococcus pyogenes M1 GAS.

Experiment [4] is described as follows: viability loss in THP-1 monocytes – THP-1 cells, cytotoxicity control for Vif-APOBEC3G degradation inhibitor project, dose response (AID 1117359). As to conditions: THP-1. Format: functional.
For experiment [5], the target named is Serine/threonine-protein kinase Chk2 (Homo sapiens, UniProt O96017). Format: functional.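 Further: CHEK2 entry within a kinome-wide screening panel.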
Sequence of Serine/threonine-protein kinase Chk2 (O96017 whole entry): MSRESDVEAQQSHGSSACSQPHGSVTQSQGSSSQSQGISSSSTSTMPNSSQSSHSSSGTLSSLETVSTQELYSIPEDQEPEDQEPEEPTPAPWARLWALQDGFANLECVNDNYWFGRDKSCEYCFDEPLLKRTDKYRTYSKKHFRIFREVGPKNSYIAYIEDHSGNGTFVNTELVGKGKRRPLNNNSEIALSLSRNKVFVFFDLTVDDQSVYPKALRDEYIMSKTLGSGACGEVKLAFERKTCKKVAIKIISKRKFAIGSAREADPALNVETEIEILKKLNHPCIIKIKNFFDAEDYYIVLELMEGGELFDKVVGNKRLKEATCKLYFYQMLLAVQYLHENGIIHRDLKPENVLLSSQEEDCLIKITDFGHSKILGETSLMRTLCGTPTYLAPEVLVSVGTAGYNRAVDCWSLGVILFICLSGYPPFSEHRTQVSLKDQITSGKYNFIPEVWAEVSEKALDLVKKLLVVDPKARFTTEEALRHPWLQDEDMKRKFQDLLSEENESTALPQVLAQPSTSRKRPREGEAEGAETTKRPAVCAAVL
Experiment [6] deals with Tyrosine-protein kinase BTK (Homo sapiens, UniProt Q06187). Format: functional.
Sequence of Tyrosine-protein kinase BTK (Q06187 whole entry): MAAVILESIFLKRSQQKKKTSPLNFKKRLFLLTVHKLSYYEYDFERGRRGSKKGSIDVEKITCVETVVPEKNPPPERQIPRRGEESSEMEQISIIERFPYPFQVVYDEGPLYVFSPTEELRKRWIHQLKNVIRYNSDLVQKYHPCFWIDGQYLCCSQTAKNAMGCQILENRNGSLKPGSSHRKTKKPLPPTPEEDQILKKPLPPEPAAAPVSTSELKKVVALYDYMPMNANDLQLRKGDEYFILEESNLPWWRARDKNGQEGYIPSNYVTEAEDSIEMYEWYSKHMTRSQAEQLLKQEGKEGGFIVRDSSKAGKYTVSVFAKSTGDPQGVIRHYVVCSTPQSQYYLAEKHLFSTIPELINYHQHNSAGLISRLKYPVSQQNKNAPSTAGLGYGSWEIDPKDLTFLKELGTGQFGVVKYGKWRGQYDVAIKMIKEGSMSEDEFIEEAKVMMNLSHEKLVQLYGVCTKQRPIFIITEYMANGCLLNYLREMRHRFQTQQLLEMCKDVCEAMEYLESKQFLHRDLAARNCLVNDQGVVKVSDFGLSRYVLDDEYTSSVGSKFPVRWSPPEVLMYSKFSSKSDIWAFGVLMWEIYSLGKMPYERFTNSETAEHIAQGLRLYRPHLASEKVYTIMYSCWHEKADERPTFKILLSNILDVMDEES
In another experiment the target is Misshapen-like kinase 1 (Homo sapiens, UniProt Q8N4C8). Format: functional.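 Further: kinome panel screen with MINK as the panel member.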
Experiment [7] addresses Vascular endothelial growth factor receptor 3 (Homo sapiens, UniProt P35916). Format: functional.
The target of experiment [8] is Glycogen synthase kinase-3 beta (Homo sapiens, UniProt P49841). The class given is functional.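 Further: value comes from a broad kinome profiling panel, with GSK3B as the panel member.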
Sequence of Glycogen synthase kinase-3 beta (P49841 whole entry): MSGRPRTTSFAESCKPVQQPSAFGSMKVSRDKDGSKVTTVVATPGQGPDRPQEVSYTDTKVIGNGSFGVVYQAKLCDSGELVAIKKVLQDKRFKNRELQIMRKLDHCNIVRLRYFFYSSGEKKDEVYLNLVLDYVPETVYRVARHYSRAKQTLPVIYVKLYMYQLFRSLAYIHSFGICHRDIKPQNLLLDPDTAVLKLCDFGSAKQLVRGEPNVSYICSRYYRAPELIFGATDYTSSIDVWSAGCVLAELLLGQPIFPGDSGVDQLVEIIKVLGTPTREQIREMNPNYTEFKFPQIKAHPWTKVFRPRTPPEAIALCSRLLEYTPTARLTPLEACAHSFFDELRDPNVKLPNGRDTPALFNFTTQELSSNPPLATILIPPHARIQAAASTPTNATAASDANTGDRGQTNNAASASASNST
Another experiment deals with Nonstructural protein 1 (Influenza A virus, UniProt Q194T2). Format: functional, Influenza A virus (A/California/07/2009(H1N1)).
The target of experiment [9] is Mitogen-activated protein kinase 13 (Homo sapiens, UniProt O15264). The class given is functional.
Sequence of Mitogen-activated protein kinase 13 (O15264 whole entry): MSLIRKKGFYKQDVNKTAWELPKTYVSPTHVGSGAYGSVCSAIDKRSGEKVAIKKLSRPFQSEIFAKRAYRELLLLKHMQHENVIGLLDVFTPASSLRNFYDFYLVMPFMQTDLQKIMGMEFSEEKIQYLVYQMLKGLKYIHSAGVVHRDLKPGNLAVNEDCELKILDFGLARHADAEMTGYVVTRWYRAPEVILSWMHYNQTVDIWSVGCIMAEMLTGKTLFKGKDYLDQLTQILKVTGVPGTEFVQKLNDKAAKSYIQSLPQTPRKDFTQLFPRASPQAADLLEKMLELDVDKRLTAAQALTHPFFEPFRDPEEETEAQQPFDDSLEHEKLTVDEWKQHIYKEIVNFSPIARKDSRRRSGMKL
For experiment [10], the target named is Mitogen-activated protein kinase kinase kinase kinase 5 (Homo sapiens, UniProt Q9Y4K4). The class given is functional.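 Further: measured as one member of a kinome-spanning kinase panel.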
Sequence of Mitogen-activated protein kinase kinase kinase kinase 5 (Q9Y4K4 whole entry): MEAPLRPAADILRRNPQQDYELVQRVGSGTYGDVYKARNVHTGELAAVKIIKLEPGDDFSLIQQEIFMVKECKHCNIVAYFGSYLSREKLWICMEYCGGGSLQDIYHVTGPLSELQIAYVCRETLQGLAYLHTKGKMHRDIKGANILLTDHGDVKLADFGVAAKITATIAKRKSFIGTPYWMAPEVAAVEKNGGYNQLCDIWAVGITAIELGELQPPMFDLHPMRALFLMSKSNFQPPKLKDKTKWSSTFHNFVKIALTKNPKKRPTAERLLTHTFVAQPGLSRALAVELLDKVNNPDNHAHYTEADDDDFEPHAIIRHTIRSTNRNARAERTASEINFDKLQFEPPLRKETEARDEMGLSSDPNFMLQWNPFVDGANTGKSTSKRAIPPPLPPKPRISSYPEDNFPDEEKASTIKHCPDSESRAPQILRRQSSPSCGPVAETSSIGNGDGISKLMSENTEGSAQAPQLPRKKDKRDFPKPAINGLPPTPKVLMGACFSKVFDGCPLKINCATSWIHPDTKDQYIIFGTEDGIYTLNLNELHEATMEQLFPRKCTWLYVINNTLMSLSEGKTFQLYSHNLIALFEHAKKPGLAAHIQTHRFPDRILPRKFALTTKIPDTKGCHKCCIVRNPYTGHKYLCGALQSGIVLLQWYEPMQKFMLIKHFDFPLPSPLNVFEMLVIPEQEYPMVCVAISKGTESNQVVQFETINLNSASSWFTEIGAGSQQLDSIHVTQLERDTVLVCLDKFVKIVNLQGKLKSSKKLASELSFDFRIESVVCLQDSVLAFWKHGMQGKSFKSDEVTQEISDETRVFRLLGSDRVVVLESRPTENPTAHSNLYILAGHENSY
Experiment [11] concerns the target Tyrosine-protein kinase Fer (Homo sapiens, UniProt P16591). Format: functional.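 Further: FER tested as one member of a kinome panel.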

Structures are written as SMILES. Activity calls are given as the source filed them.

Usually IC50 stands for the concentration at which inhibition is half-maximal. As a reminder, the EC50 is the concentration that produces a half-maximal response. The CC50 is the concentration giving 50% cytotoxicity. As usually defined, the Ki is a dissociation constant, usually derived from enzyme kinetics or from competition with a known ligand.

Sequence of Tyrosine-protein kinase Fer (P16591 whole entry): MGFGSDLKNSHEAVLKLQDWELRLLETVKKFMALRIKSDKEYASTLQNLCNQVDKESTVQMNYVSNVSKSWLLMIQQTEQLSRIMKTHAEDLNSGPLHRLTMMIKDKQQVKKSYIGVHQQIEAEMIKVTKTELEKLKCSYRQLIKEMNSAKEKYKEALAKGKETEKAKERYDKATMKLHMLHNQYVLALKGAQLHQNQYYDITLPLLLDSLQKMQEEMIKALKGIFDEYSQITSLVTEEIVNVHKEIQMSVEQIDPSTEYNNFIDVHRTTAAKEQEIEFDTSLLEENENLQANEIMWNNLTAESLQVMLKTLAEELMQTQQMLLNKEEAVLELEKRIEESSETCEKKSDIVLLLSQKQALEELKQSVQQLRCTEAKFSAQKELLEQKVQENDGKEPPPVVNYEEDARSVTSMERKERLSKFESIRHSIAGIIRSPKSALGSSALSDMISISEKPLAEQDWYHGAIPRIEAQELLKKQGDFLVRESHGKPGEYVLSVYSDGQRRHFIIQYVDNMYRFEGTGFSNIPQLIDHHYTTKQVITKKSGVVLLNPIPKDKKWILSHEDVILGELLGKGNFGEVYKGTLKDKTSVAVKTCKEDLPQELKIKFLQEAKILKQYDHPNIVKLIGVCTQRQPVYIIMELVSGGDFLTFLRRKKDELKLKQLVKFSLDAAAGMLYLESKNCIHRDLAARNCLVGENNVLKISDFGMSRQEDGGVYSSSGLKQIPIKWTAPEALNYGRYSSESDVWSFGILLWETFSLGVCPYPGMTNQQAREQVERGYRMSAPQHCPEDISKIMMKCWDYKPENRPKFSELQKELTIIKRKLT
Sequence of Vascular endothelial growth factor receptor 3 (P35916 whole entry): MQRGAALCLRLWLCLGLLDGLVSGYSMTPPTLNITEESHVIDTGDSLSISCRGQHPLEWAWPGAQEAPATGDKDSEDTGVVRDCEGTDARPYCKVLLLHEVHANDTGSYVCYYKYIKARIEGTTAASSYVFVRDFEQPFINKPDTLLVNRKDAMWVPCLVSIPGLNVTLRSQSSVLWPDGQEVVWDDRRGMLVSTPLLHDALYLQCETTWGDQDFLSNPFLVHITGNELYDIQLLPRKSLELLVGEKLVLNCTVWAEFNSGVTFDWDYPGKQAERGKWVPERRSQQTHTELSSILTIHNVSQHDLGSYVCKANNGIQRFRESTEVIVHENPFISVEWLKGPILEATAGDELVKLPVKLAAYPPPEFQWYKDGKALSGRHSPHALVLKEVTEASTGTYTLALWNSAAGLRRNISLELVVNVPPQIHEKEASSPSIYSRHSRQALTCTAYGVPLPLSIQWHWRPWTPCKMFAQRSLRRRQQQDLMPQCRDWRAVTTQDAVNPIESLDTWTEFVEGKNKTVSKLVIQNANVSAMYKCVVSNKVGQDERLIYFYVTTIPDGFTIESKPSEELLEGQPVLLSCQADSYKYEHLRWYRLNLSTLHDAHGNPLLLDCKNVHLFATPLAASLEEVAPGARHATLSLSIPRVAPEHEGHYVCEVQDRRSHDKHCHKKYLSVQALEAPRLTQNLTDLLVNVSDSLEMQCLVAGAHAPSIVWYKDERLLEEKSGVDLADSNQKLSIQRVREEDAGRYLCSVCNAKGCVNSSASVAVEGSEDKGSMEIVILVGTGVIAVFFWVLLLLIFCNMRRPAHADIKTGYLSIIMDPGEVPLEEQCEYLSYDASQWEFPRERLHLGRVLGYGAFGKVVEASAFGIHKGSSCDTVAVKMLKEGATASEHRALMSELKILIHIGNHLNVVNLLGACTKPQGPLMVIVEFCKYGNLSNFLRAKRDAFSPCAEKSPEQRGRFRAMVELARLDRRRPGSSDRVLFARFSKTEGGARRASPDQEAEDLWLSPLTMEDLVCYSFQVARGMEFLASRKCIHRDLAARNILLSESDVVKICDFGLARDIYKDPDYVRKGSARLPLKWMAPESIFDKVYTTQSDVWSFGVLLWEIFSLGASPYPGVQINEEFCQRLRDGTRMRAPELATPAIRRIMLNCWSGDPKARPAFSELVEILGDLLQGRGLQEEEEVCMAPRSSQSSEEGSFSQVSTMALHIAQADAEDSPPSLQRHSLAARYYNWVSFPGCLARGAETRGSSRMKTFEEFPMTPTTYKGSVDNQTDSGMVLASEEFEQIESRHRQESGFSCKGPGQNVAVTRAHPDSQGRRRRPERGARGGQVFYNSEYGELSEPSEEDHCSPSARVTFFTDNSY

In the case of `COC(=O)CCS(=O)(=O)c1nc(-c2ccccc2)cc(C(F)(F)F)n1`, the IC50 in experiment [1] is 28400 nM (not active).
As for `O=C(O)c1ccc(NC2=C(Cl)C(=O)c3ccccc3C2=O)cc1`, at Coagulation factor XII, the IC50 was > 50000 nM (inactive).
For `O=C(O)c1ccc2c3c(ncnc13)-c1ccccc1C2=O`, the EC50 was 31900 nM (active) in [2], 2450 nM (active) in experiment [3] and 16000 nM (active) at Streptokinase A.
Consider `CCOC(=O)c1c2c(n(Cc3ccccc3)c1C)C(=O)C(=O)c1ccccc1-2`, for which the CC50 in experiment [4] was 870 nM (active).
As for `Cc1ccc2nccc(NC(=O)Nc3cccc(C(F)(F)F)n3)c2c1`, the Ki in experiment [5] is > 1580 nM (inactive); in experiment [6] it was > 1260 nM (inactive); on Misshapen-like kinase 1, 200 nM (active); in experiment [7] it was 1000 nM (active).
As to `Cc1nn(C)c2sc3c(=O)[nH]cnc3c12`, the Ki in experiment [8] was 39800 nM (active).
Turning to `Cc1c(/N=C2\C=CC(=O)c3ccccc32)c(=O)n(-c2ccccc2)n1C`, at Nonstructural protein 1, the IC50 was 28700 nM (active).
Take `COc1cc2c(cc1F)C(c1ccccc1Cl)=Nc1c(n[nH]c1C)N2` [RG-1530]: the Ki in [9] was > 7940 nM (inactive); in experiment [10], > 2510 nM (inactive); in experiment [11], 126 nM (active).

The values are drawn from ChEMBL document CHEMBL1201862, “PubChem BioAssay data set” (2004).
